# Results: patent publication US8735388B2, “Heterocyclic compounds with affinity to muscarinic receptors” (Abbvie B. V. A., priority 2007, dated 2014)
# pEC50, pKi: −log10 of the molar value. Read-outs that look alike come from different tables or passages of the source.
# Key:
# [1] = biological target: T1, Muscarine M2 (GPCR-A-MA-ACH M2) (Cavia porcellus, UniProt H0VRN8); assay: Muscarine M2 functional assay, isolated organ (left atrium, electrically paced), agonist and antagonist mode; parameters: species or system Guinea Pig
# T1 construct: from tissue; host or cells: guinea pig left atrium (electrically paced)
# T1 sequence (H0VRN8 1-466): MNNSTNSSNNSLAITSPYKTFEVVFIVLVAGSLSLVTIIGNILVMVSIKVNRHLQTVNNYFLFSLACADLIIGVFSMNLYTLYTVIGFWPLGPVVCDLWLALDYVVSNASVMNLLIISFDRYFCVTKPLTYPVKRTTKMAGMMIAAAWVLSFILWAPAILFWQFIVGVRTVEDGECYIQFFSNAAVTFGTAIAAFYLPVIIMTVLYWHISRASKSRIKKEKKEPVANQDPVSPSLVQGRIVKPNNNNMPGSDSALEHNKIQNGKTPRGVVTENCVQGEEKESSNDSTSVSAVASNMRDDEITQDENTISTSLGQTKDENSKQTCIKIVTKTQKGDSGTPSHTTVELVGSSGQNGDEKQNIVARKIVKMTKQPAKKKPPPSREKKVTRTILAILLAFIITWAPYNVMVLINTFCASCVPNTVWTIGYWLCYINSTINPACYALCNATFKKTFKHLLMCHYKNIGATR
# [2] = biological target: T2, Muscarine M3 (GPCR-A-MA-ACH M3) (Cavia porcellus, UniProt H0W1Z3); assay: Muscarine M3 functional assay, isolated organ (ileum), agonist and antagonist mode; parameters: species or system Guinea Pig
# T2 construct: from tissue; host or cells: guinea pig ileum
# [3] = biological target: T3, Muscarine M4 (GPCR-A-MA-ACH M4) (Homo sapiens, UniProt P08173); assay: Muscarine M4 receptor binding, 3H-Oxotremorine; details: for Ki: human M4, CHO cells, receptor binding, ligand 6 nM, 30 min/25° C., read-out: RB Musc. M4 3H-Oxotremorine pKi (converted)
# T3 construct: expressed in transfected cells; host or cells: CHO cells
# T3 sequence (P08173 1-479): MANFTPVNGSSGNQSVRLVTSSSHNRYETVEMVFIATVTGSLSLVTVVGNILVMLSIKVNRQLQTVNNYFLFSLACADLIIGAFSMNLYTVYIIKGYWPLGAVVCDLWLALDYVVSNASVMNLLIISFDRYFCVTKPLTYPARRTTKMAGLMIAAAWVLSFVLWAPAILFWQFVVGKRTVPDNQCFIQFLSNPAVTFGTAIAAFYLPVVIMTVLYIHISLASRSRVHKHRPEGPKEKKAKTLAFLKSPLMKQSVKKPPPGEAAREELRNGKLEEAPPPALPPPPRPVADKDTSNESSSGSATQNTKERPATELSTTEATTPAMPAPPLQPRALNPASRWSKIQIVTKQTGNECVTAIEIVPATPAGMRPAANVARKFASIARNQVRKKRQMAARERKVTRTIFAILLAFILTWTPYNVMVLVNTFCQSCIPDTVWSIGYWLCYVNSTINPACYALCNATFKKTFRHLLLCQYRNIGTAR
# Experimental: (§1) Compounds were dissolved in DMSO (10 mM) and diluted in assay buffer to test concentration. Prime testing was at 10 μM; for actives (PI, percent inhibition with respect to total and non-specific binding >40%) testing was continued at lower concentrations in 10-fold dilutions: 1 μM, 0.1 μM, etc.
# (§2) Following incubation of compound with the receptor preparation (from ‘Tissue’) and the Ligand at the time and temperature indicated, the receptor preparations were rapidly filtered under vacuum through glass fibre filters; the filters were washed extensively with an ice-cold buffer using a harvester. Bound radioactivity was measured by scintillation counting using a liquid scintillation cocktail.
# (§3) Results were expressed as percentage of total Ligand binding and that of Non Specific Binding, per concentration of Compound tested (duplicates); from the concentration—displacement curves IC50 values were determined by non-linear regression analysis using Hill equation curve fitting. The inhibition constants (Ki) were calculated from the Cheng-Prushoff equation Ki=IC50/(1+L/Kd), where L is the concentration of radioligand in the assay, and Kd the affinity of the radioligand for the receptor. Results were expressed as pKi's, means±SD of at least 2 separate experiments; i.e. outliers (outside+/−1 std of mean) and discrepancies were excluded.
# [4] = biological target: T4, Muscarine M1 (GPCR-A-MA-ACH M1) (Homo sapiens, UniProt P11229); assay: Muscarine M1 receptor binding, 3H-Pirenzepine; details: human M1, CHO cells, ligand 2 nM, 60 min/22° C., read-out: RB Musc. M1 3H-Pirenzepine pKi (converted)
# T4 construct: expressed in transfected cells; host or cells: CHO cells
# T4 sequence (P11229 1-460): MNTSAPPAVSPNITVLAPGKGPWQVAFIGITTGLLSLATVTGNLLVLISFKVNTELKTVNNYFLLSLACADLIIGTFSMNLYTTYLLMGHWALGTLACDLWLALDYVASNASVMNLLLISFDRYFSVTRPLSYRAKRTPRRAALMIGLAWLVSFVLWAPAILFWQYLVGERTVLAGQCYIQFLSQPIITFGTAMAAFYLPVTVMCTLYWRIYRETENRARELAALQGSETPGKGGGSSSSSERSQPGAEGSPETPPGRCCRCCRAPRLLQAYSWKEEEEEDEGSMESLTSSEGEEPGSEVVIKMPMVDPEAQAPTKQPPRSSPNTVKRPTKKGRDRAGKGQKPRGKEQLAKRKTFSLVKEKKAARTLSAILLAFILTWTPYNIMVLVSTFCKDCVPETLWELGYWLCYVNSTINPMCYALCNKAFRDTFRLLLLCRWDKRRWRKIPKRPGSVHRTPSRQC
# Experimental: as §1, §2, §3
# [5] = biological target: T3, Muscarine M4 (GPCR-A-MA-ACH M4); assay: Muscarine M4 cell-based functional assay (CHO cells, Ca2+ - Aequorin luminescence); details: for EC50: human M4, CHO cells, agonist mode, reference agonist oxotremorine, read-out: Cell funct. Musc. M4 Agonism pEC50 (converted)
# Experimental: Compounds were dissolved in DMSO (10 mM) and diluted in assay buffer to test concentration. Prime testing was at 1 μM; for actives in antagonist mode (PI, percent inhibition with respect to reference agonist and blank>30%) as well as actives in agonist mode (PS, percent stimulation with respect to reference agonist and blank>30%) testing was continued at lower concentrations in 10-fold dilutions: 0.1 μM, 0.01 μM, etc.
# Cells were incubated with compound and the response indicated was measured.
# The results are expressed as a percent of reference agonist values and blanks in the presence of the test compound, percent stimulation for agonist mode; for the antagonist mode (test compound in the presence of reference agonist) as percent inhibition. The EC50 values (concentration causing a half-maximal stimulation of control values), IC50 values (concentration causing a half-maximal inhibition of control values) were determined by non-linear regression analysis of the concentration-response curves using Hill equation curve fitting.
# [6] = biological target: T4, Muscarine M1 (GPCR-A-MA-ACH M1); assay: Muscarine M1 cell-based functional assay (CHO cells, Ca2+ - FLIPR Fluorimetry); details: read-out: Cell funct. Musc. M1 Agonism pEC50 (converted)
# [7] = biological target: T3, Muscarine M4 (GPCR-A-MA-ACH M4); assay: Muscarine M4 receptor binding, 3H-4DAMP; details: human M4, CHO cells, ligand 0.2 nM, 60 min/22° C., read-out: RB Musc. M4 3H-DAMP pKi (converted)
# Experimental: as §1, §2, §3
# [8] = human M1, CHO cells, agonist mode, reference agonist acetylcholine
# T2 sequence (H0W1Z3 1-590): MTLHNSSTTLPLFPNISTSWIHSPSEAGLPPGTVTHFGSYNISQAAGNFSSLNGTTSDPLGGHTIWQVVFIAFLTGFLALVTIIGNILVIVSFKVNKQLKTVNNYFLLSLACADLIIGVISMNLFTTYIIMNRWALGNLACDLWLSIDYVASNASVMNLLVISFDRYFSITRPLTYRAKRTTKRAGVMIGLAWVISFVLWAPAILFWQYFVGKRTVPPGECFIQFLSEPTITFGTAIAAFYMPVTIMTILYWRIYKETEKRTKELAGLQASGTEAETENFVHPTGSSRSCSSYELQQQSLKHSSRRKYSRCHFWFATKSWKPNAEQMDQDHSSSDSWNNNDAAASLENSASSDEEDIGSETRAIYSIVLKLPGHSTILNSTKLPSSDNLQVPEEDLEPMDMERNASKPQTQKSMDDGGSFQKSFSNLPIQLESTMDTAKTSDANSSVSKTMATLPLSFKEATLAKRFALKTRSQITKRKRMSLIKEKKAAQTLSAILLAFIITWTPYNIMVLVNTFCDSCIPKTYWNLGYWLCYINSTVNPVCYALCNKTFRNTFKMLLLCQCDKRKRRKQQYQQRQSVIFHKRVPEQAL
Kb [2] [nM],Ki [4] [nM],Ki [7] [nM],Ki [3] [nM],EC50 [5] [nM],"EC50 [6, 8] [nM]",SMILES,Kb [1] [nM],pKi [3],pEC50 [5],EC50 [6] [nM]
–,–,–,–,–,–,"COc1ccccc1CNCCCCCCNCCCCCCCCNCCCCCCNCc1ccccc1OC [Methoctramine, reference compound]",12.6,–,–,–
1.26,–,–,–,–,–,"CN1CCN(CC(=O)N2c3ccccc3C(=O)Nc3cccnc32)CC1 [Pirenzepine, reference compound]",–,–,–,–
–,1260,316,1580,1260,126,"CCCCOc1c[nH]nc1C1=CCCN(C)C1 [Compound 33C, 3-(4-Butyloxy-1H-pyrazol-3-yl)-1,2,5,6-tetrahydro-1-methylpyridine]",–,–,–,–
–,794,794,501,2000,> 1000,"CCCCCCCC#Cc1c[nH]nc1C1=CCCN(C)C1 [Compound 45C, 3-(4-Non-1-ynyl-1H-pyrazol-3-yl)-1,2,5,6-tetrahydro-1-methylpyridine]",–,–,–,–
–,1260,631,398,1260,100,"CN1CCC=C(c2n[nH]cc2SCC=Cc2ccccc2)C1 [Compound 22K, 3-[4-(3-Phenyl-allylsulfanyl)-1H-pyrazol-3-yl]-1,2,5,6-tetrahydro-1-methylpyridine]",–,–,–,–
–,2000,631,501,1260,794,"CN1CCC=C(c2n[nH]cc2C#CCCCc2ccccc2)C1 [Compound 45D, 3-[4-(5-Phenyl-pent-1-ynyl)-1H-pyrazol-3-yl]-1,2,5,6-tetrahydro-1-methylpyridine]",–,–,–,–
–,1260,316,398,> 10000,126,"CCCCCc1c[nH]nc1C1=CCCN(C)C1 [Compound 9, 3-(4-Pentyl-1H-pyrazol-3-yl)-1,2,5,6-tetrahydro-1-methylpyridine]",–,–,–,–
–,200,63.1,126,10,126,"CCCCCCSc1c[nH]nc1C1=CCCN(C)C1 [Compound 22H, 3-(4-Hexylsulfanyl-1H-pyrazol-3-yl)-1,2,5,6-tetrahydro-1-methylpyridine]",–,–,–,–
–,2510,1000,1580,1260,100,"C=CCCOc1c[nH]nc1C1=CCCN(C)C1 [Compound 33D, 3-(4-But-3-enyloxy-1H-pyrazol-3-yl)-1,2,5,6-tetrahydro-1-methylpyridine]",–,–,–,–
–,1580,631,398,794,126,"CCCCC#Cc1c[nH]nc1C1=CCCN(C)C1 [Compound 45A, 3-(4-Hex-1-ynyl-1H-Pyrazol-3-yl)-1,2,5,6-tetrahydro-1-methylpyridine]",–,–,–,–
–,1000,316,158,631,200,"CCCCCCCOc1c[nH]nc1C1=CCCN(C)C1 [Compound 33E, 3-(4-Heptyloxy-1H-pyrazol-3-yl)-1,2,5,6-tetrahydro-1-methylpyridine]",–,–,–,–
–,1580,251,631,794,200,"CCCCC=Cc1conc1C1=CCCN(C)C1 [Compound 68A, 3-(4-Hex-1-enyl-isoxazol-3-yl)-1,2,5,6-tetrahydro-1-methylpyridine]",–,–,–,–

SMILES,Kb [2] [nM],Ki [4] [nM],Ki [7] [nM],Ki [3] [nM],EC50 [5] [nM],"EC50 [6, 8] [nM]",Kb [1] [nM],pKi [3],pEC50 [5],EC50 [6] [nM]
"FC(F)=CCCSc1c[nH]nc1C1CN2CCC1CC2 (stereo not shown) [Compound 49I, 3-[4-(4,4-Difluoro-but-3-enylsulfanyl)-1H-pyrazol-3-yl]-1-azabicyclo[2.2.2]octane]",–,316,63.1,–,–,–,–,7.90,7.70,3.16
"CCSc1c[nH]nc1C1CN2CCC1CC2 (stereo not shown) [Compound 49D, 3-(4-Ethylsulfanyl-1H-pyrazol-3-yl)-1-azabicyclo[2.2.2]octane]",–,794,100,–,–,–,–,6.90,6.80,39.8
"Ic1c[nH]nc1[C@@H]1CN2CCC[C@H]1C2 [Compound 59, endo-6-(4-iodo-1H-pyrazol-3-yl)-1-azabicyclo[3.2.1]octane]",–,1000,100,–,–,–,–,6.70,< 5.00,79.4
